{"source": "BindingDB's records for doi:10.1016/j.ejmech.2020.113121", "about": "(Virginia Tech, 2021)", "assay": "Inhibition of recombinant human Sphk2 expressed in yeast strain KYA1 assessed as increase in yeast growth measured after 24 hrs", "note": "pEC50: −log10 of the molar value.", "data": [{"smiles": "CCCCCCCCCn1ccc2cc(-c3noc([C@@H]4CCCN4C(=N)N)n3)ccc21", "values": [{"measurement": "pEC50", "result": 6.77}]}]}
